Experimental data: ChEMBL document CHEMBL1130390, “Design and synthesis of novel imidazole-substituted dipeptide amides as potent and selective inhibitors of Candida albicans myristoylCoA:protein N-myristoyltransferase and identification of related tripeptide inhibitors with mechanism-based antifungal activity” (J Med Chem, 1997)

Experiments:
[1] = biological target: Peptide N-myristoyltransferase (Candida albicans)
[2] = biological target: T1, Peptide N-myristoyltransferase (Homo sapiens, UniProt P30419+O60551); assay: Inhibition activity against N-myristoyltransferase (NMT) of human.; assay type: protein assay
T1 sequence (P30419 whole entry): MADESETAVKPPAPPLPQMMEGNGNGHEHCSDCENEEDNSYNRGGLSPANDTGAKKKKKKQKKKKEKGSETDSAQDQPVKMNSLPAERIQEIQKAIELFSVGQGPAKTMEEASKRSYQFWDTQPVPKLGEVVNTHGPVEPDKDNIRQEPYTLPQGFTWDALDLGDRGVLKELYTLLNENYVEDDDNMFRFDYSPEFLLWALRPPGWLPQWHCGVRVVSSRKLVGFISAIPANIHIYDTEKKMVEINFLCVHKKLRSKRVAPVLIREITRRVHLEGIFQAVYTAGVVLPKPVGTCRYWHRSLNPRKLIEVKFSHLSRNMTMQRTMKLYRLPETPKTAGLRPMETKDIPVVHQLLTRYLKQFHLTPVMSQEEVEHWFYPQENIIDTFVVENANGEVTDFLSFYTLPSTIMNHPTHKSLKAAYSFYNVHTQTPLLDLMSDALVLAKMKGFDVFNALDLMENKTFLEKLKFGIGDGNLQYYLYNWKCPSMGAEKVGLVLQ
T1 sequence (O60551 whole entry): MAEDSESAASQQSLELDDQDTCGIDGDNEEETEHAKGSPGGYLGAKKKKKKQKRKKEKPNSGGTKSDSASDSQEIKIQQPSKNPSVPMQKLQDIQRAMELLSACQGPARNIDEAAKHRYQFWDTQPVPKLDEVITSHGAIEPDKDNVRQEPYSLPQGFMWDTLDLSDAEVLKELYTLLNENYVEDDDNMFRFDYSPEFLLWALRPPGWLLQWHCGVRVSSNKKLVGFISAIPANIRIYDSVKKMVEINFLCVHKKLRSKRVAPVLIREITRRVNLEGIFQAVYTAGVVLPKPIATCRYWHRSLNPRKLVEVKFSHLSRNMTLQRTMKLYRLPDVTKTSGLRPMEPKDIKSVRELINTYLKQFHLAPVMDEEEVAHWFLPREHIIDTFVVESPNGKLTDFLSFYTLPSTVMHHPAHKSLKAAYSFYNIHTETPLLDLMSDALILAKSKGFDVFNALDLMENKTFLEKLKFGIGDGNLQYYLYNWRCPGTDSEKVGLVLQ

Candida albicans [3] = assay: Growth inhibitory activity against candida albicans.; assay type: functional, organism-based
Cryptococcus neoformans = assay: Growth inhibitory activity against Cryptococcus neoformans.; assay type: functional, organism-based
Candida albicans [4] = assay: tested to obtain the effective concentration to inhibit candida albicans.; assay type: functional, organism-based

| IC50 [1] [µM] | IC50 [2] [µM] | EC50 (Candida albicans [4]) [µM] | Structure (SMILES) | EC50 (Candida albicans [3]) [µM] | EC50 (Cryptococcus neoformans) [µM] |
| --- | --- | --- | --- | --- | --- |
| 0.31 | – | – | NCCCC[C@H](NC(=O)[C@H](CO)NC(=O)Cc1ccc(CCCCn2ccnc2)cc1)C(=O)NCCC1CCCCC1 | – | – |
| 0.86 | 119.5 | – | Cc1nc2ccccc2n1CCCCc1ccc(C(C)C(=O)N[C@@H](CO)C(=O)N[C@@H](CCCCN)C(=O)NCCC2CCCCC2)cc1 (stereo not given in full) | – | – |
| 1.45 | 809.5 | – | Cc1nccn1CCCCc1ccc(CC(=O)N[C@@H](CO)C(=O)N[C@@H](CCCCN)C(=O)N[C@@H](CC2CCCCC2)C(=O)O)cc1 | 51 | > 100 |
| 1.88 | – | – | NCCCC[C@H](NC(=O)[C@H](CO)NC(=O)Cc1ccc(CCCCn2ccnc2I)cc1)C(=O)NCCC1CCCCC1 | – | – |
| > 1000 | > 1000 | > 100 | Cc1nccn1CCCCc1ccc(CC(=O)N[C@H](CO)C(=O)N[C@H](CCCCN)C(=O)N[C@H](CC2CCCCC2)C(=O)O)cc1 | – | > 100 |
| 0.38 | 840 | 33 | Cc1nccn1CCCCc1ccc(C(C)C(=O)N[C@@H](CO)C(=O)N[C@@H](CCCCN)C(=O)N[C@@H](CC2CCCCC2)C(=O)O)cc1 (stereo not given in full) | – | > 100 |
| 5.5 | – | – | NCCCC[C@H](NC(=O)[C@H](CO)NC(=O)CCCCCCCCn1ccnc1)C(=O)NCCC1CCCCC1 | – | – |
| 0.147 | 28.2 | – | CCc1nccn1CCCCc1ccc(CC(=O)N[C@@H](CO)C(=O)N[C@@H](CCCCN)C(=O)NCCC2CCCCC2)cc1 | – | – |
| 3 | – | – | NCCCC[C@H](NC(=O)[C@H](CO)NC(=O)CCCCCCCCCCCn1ccnc1)C(=O)NCCC1CCCCC1 | – | – |
| 3 | – | – | NCCCC[C@H](NC(=O)[C@H](CO)NC(=O)CCCCCCCCCn1ccnc1)C(=O)NCCC1CCCCC1 | – | – |
| 0.2 | > 100 | – | CC(C)c1nccn1CCCCc1ccc(CC(=O)N[C@@H](CO)C(=O)N[C@@H](CCCCN)C(=O)NCCC2CCCCC2)cc1 | – | – |
| 0.081 | 22.7 | > 100 | COC(=O)[C@H](NC(=O)[C@H](CCCCN)NC(=O)[C@H](CO)NC(=O)Cc1ccc(CCCCn2ccnc2C)cc1)C(=O)O | – | > 100 |
| 1.2 | – | – | NCCCC[C@H](NC(=O)[C@H](CO)NC(=O)Cc1ccc(CCCCCn2ccnc2)cc1)C(=O)NCCC1CCCCC1 | – | – |
| 2.05 | 142 | – | CC(C(=O)N[C@@H](CO)C(=O)N[C@@H](CCCCN)C(=O)NCCC1CCCCC1)c1ccc(CCCCn2ccnc2Cl)cc1 (stereo not given in full) | – | – |
